In PubChem BioAssay AID1918996 (Molecular Pharmacology Branch, DTP, NCI, 2023):
Several values for one entry are separate records, joined by “and”; a condition that tells them apart may be missing. Equal values may be shown once.

System: 349418-098-R-PDC complex spheroid growth
Assay: Anticancer human tumor 349418-098-R-PDC patient-derived lung adenocarcinoma cell line growth inhibition [AhR]
Conditions: for viability, T/C: stronger effect = lower value
Method in brief: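 Agents were dosed in half-log steps down from roughly clinical Cmax, or from 10 microM where Cmax was unknown, alone and with AhR antagonists. Read-out: percent test/control growth of tumor spheroids containing HUVEC and MSC stromal cells.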

[1] = curve of first compound, second compound 0.1 µM
[2] = curve of first compound, second compound 0.316 µM
[3] = curve of first compound, second compound 1 µM
[4] = curve of first compound, second compound 3.16 µM
[5] = curve of first compound, second compound 10 µM
[6] = second compound 0.1 µM, first compound 0.0316 µM
[7] = second compound 0.1 µM, first compound 0.1 µM
[8] = second compound 0.1 µM, first compound 0.316 µM
[9] = second compound 0.1 µM, first compound 1 µM
[10] = second compound 0.1 µM, first compound 3.16 µM
[11] = second compound 0.1 µM, first compound 10 µM
[12] = second compound 0.316 µM, first compound 0.0316 µM
[13] = second compound 0.316 µM, first compound 0.1 µM
[14] = second compound 0.316 µM, first compound 0.316 µM
[15] = second compound 0.316 µM, first compound 1 µM
[16] = second compound 0.316 µM, first compound 3.16 µM
[17] = second compound 0.316 µM, first compound 10 µM
[18] = second compound 1 µM, first compound 0.0316 µM
[19] = second compound 1 µM, first compound 0.1 µM
[20] = second compound 1 µM, first compound 0.316 µM
[21] = second compound 1 µM, first compound 1 µM
[22] = second compound 1 µM, first compound 3.16 µM
[23] = second compound 1 µM, first compound 10 µM
[24] = second compound 3.16 µM, first compound 0.0316 µM
[25] = second compound 3.16 µM, first compound 0.1 µM
[26] = second compound 3.16 µM, first compound 0.316 µM
[27] = second compound 3.16 µM, first compound 1 µM
[28] = second compound 3.16 µM, first compound 3.16 µM
[29] = second compound 3.16 µM, first compound 10 µM
[30] = second compound 10 µM, first compound 0.0316 µM
[31] = second compound 10 µM, first compound 0.1 µM
[32] = second compound 10 µM, first compound 0.316 µM
[33] = second compound 10 µM, first compound 1 µM
[34] = second compound 10 µM, first compound 3.16 µM
[35] = second compound 10 µM, first compound 10 µM
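Also: spheroids exposed to agents for seven days before luminescence viability read.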
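For viability, T/C in this document: spheroids also contain HUVEC endothelial cells and human MSC stroma.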

Row | Structure (SMILES) | IC50 [1] [nM] | IC50 [2] [nM] | IC50 [3] [nM] | IC50 [4] [nM] | IC50 [5] [nM] | viability, T/C [6] [%] | viability, T/C [7] [%] | viability, T/C [8] [%] | viability, T/C [9] [%] | viability, T/C [10] [%] | viability, T/C [11] [%] | viability, T/C [12] [%] | viability, T/C [13] [%] | viability, T/C [14] [%] | viability, T/C [15] [%] | viability, T/C [16] [%] | viability, T/C [17] [%] | viability, T/C [18] [%] | viability, T/C [19] [%] | viability, T/C [20] [%] | other results
1 | Nc1ccn(C2OC(CO)C(O)C2(F)F)c(=O)n1 (centres undefined) + Cc1ccccc1N=Nc1ccc(NC(=O)c2ccnn2C)c(C)c1 | < 31.6 | < 31.6 | < 31.6 | < 31.6 | < 31.6 | 15.1 | 14.6 | 13.6 | 12.1 | 11.3 | 8.74 | 15.9 | 13.5 | 14.6 | 13.1 | 11.2 | 9.73 | 15.7 | 14.8 | 15.3 | viability, T/C [21]: 11.7%; viability, T/C [22]: 14.3%; viability, T/C [23]: 11.4%; viability, T/C [24]: 14.9%; viability, T/C [25]: 16.4%; viability, T/C [26]: 13.1%; viability, T/C [27]: 12.7%; viability, T/C [28]: 13%; viability, T/C [29]: 10.1%; viability, T/C [30]: 17.9%; viability, T/C [31]: 17.4%; viability, T/C [32]: 16.7%; viability, T/C [33]: 14.1%; viability, T/C [34]: 13.4%; viability, T/C [35]: 12.2%
2 | COc1cc(C2c3cc4c(cc3C(OC3OC5COC(C)OC5C(O)C3O)C3COC(=O)C23)OCO4)cc(OC)c1O (centres undefined) + CC(CO)NC(=O)c1cc(-c2ccc(Cl)cc2)nn(-c2cnn(C)c2)c1=O | 727 | 607 | 503 | 269 | 136 | 103 | 98 | 91.1 | 34.1 | 18 | 12.9 | 108 | 109 | 72.4 | 32.6 | 16.2 | 11.3 | 102 | 90.2 | 64.5 | viability, T/C [21]: 29%; viability, T/C [22]: 18.7%; viability, T/C [23]: 14.6%; viability, T/C [24]: 78.8%; viability, T/C [25]: 104%; viability, T/C [26]: 43.2%; viability, T/C [27]: 25.1%; viability, T/C [28]: 16.6%; viability, T/C [29]: 13.5%; viability, T/C [30]: 59%; viability, T/C [31]: 56.4%; viability, T/C [32]: 36%; viability, T/C [33]: 22.3%; viability, T/C [34]: 14.4%; viability, T/C [35]: 14.1%
3 | Cn1ncnc1C1c2n[nH]c(=O)c3cc(F)cc(c23)NC1c1ccc(F)cc1 (centres undefined) | – | – | – | – | – | – | – | – | – | – | – | – | – | – | – | – | – | – | – | – | viability, T/C (compound 0.000316 µM): 100% and 74.1% and 70.2%; viability, T/C (compound 0.001 µM): 102% and 101% and 105%; viability, T/C (compound 0.00316 µM): 99.4% and 111% and 92.2%; viability, T/C (compound 0.01 µM): 93.1% and 74.3% and 87%; viability, T/C (compound 0.0316 µM): 87.6% and 97.2% and 84.1%; viability, T/C (compound 0.1 µM): 90.1% and 98.5% and 63.7%; IC50 (curve of compound): > 100 nM
4 | Nc1ccn(C2OC(CO)C(O)C2(F)F)c(=O)n1 (centres undefined) | – | – | – | – | – | – | – | – | – | – | – | – | – | – | – | – | – | – | – | – | viability, T/C (compound 0.0316 µM): 4.83% and 12.5% and 13.7%; viability, T/C (compound 0.1 µM): 4.18% and 11.3% and 11.8%; viability, T/C (compound 0.316 µM): 4.06% and 10.1% and 12.9%; viability, T/C (compound 1 µM): 5.57% and 9.29% and 10.5%; viability, T/C (compound 3.16 µM): 4.07% and 9.38% and 10.2%; viability, T/C (compound 10 µM): 3.24% and 7.8% and 8.55%; IC50 (curve of compound): < 31.6 nM
5 | O=C(C=Cc1cccc(S(=O)(=O)Nc2ccccc2)c1)NO + Cc1ccccc1N=Nc1ccc(NC(=O)c2ccnn2C)c(C)c1 | 772 | 706 | 597 | 671 | 331 | 132 | 119 | 73 | 47.6 | 10.4 | 1.93 | 126 | 108 | 82.8 | 36.1 | 8.81 | 1.91 | 109 | 122 | 69.3 | viability, T/C [21]: 33.3%; viability, T/C [22]: 8.25%; viability, T/C [23]: 2.09%; viability, T/C [24]: 94%; viability, T/C [25]: 94.1%; viability, T/C [26]: 78.3%; viability, T/C [27]: 34.7%; viability, T/C [28]: 8.53%; viability, T/C [29]: 2.35%; viability, T/C [30]: 74.7%; viability, T/C [31]: 72.5%; viability, T/C [32]: 50%; viability, T/C [33]: 22.9%; viability, T/C [34]: 8.56%; viability, T/C [35]: 2.05%
6 | Nc1ccn(C2OC(CO)C(O)C2(F)F)c(=O)n1 (centres undefined) + Cc1cncc(-c2nc(NCCc3c[nH]c4ccccc34)c3ncn(C(C)C)c3n2)c1 | < 31.6 | < 31.6 | < 31.6 | < 31.6 | < 31.6 | 5.21 | 5.33 | 4.29 | 4.06 | 3.79 | 3.29 | 5.26 | 5.35 | 4.46 | 4.46 | 3.84 | 3.1 | 5.67 | 5.73 | 5.73 | viability, T/C [21]: 4.6%; viability, T/C [22]: 6.45%; viability, T/C [23]: 3.8%; viability, T/C [24]: 8.15%; viability, T/C [25]: 6.5%; viability, T/C [26]: 5.64%; viability, T/C [27]: 4.25%; viability, T/C [28]: 4.89%; viability, T/C [29]: 3.39%; viability, T/C [30]: 4.66%; viability, T/C [31]: 3.51%; viability, T/C [32]: 3.29%; viability, T/C [33]: 4.08%; viability, T/C [34]: 2.99%; viability, T/C [35]: 2.51%
